Measurements: US11051515B2, “3-acyl-benzamides and their use as herbicides” (Bayer Aktiengesellschaft, priority 2017, dated 2021)

Experiments:
ALOMY [1] = assay: Pre-emergence action against ALOMY; type: in vivo, Alopecurus myosuroides; details: dosage 320 g/ha, pre-emergence, scored visually after 3 weeks vs untreated controls, 100% = plants have died, 0% = like control plants
Outline: (§1)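 Seeds sown in sandy loam in wood-fiber pots and covered with soil. Greenhouse growth; visual damage scored after 3 weeks versus untreated controls (100% = dead, 0% = like control).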

AVEFA [2] = assay: Pre-emergence action against AVEFA; type: in vivo, Avena fatua; details: dosage 320 g/ha, scored visually after 3 weeks vs untreated controls
Outline: as §1

ECHCG [3] = assay: Pre-emergence action against ECHCG; type: in vivo, Echinochloa crus-galli; details: pre-emergence, dosage 320 g/ha, scored visually after 3 weeks vs untreated controls
Outline: as §1

SETVI [4] = assay: Pre-emergence action against SETVI; type: in vivo, Setaria viridis; details: pre-emergence, dosage 320 g/ha, scored visually after 3 weeks vs untreated controls
Outline: as §1

ABUTH [5] = assay: Pre-emergence action against ABUTH; type: in vivo, Abutilon theophrasti; details: pre-emergence, dosage 320 g/ha, scored visually after 3 weeks vs untreated controls
Outline: as §1

AMARE [6] = assay: Pre-emergence action against AMARE; type: in vivo, Amaranthus retroflexus; details: pre-emergence, dosage 320 g/ha, scored visually after 3 weeks vs untreated controls
Outline: as §1

MATIN [7] = assay: Pre-emergence action against MATIN; type: in vivo, Matricaria inodora; details: Dosage 320 g/ha, pre-emergence
Outline: as §1

POLCO [8] = assay: Pre-emergence action against POLCO; type: in vivo, Polygonum convolvulus; details: Dosage 320 g/ha, pre-emergence
Outline: as §1

STEME [9] = assay: Pre-emergence action against STEME; type: in vivo, Stellaria media; details: Dosage 320 g/ha, pre-emergence
Outline: as §1

VIOTR [10] = assay: Pre-emergence action against VIOTR; type: in vivo, Viola tricolor; details: Dosage 320 g/ha, pre-emergence
Outline: as §1

VERPE [11] = assay: Pre-emergence action against VERPE; type: in vivo, Veronica persica; details: Dosage 320 g/ha, pre-emergence
Outline: as §1

ALOMY [12] = assay: Post-emergence action against ALOMY; type: in vivo, Alopecurus myosuroides; details: Dosage 80 g/ha, post-emergence
Method: (§2) Seeds of monocotyledonous and dicotyledonous weed and crop plants are laid out in sandy loam soil in wood-fiber pots, covered with soil and cultivated in a greenhouse under good growth conditions. 2 to 3 weeks after sowing, the test plants are treated at the one-leaf stage. The compounds of the invention, formulated in the form of wettable powders (WP) or as emulsion concentrates (EC), are then sprayed onto the green parts of the plants in the form of an aqueous suspension or emulsion at a water application rate equating to […], with addition of 0.2% wetting agent. After the test plants have been left to stand in the greenhouse under optimal growth conditions for about 3 weeks, the action of the preparations is assessed visually in comparison to untreated controls (herbicidal action in percent (%): 100% activity=the plants have died, 0% activity=like control plants). […] At the same time, inventive compounds leave Gramineae crops such as barley, wheat, rye, millet/Sorghum, corn or rice virtually undamaged when applied post-emergence, even at high active ingredient dosages. In addition, some substances are also harmless to dicotyledonous crops such as soya, cotton, oilseed rape, sugar beet or potatoes. Some of the compounds according to the invention have high selectivity and are therefore suitable for controlling unwanted vegetation in agricultural crops by the post-emergence method. The data of Tables B18 to B34 below illustrate, in an exemplary manner, the […] herbicidal action of the compounds according to the invention, the herbicidal activity being stated in percent.

AVEFA [13] = assay: Post-emergence action against AVEFA; type: in vivo, Avena fatua; details: post-emergence, dosage 80 g/ha, visual assessment about 3 weeks after treatment vs untreated controls
Method: as §2

CYPES [14] = assay: Post-emergence action against CYPES; type: in vivo, Cyperus esculentus; details: post-emergence, dosage 80 g/ha, visual assessment about 3 weeks after treatment vs untreated controls
Outline: (§3)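 Post-emergence foliar spray on greenhouse plants at the one-leaf stage, using wettable-powder or emulsion-concentrate formulations in water (600 to […], plus 0.2% wetting agent). Damage scored by eye roughly 3 weeks later against untreated plants: 0% = like control, 100% = dead.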

ECHCG [15] = assay: Post-emergence action against ECHCG; type: in vivo, Echinochloa crus-galli; details: post-emergence, dosage 80 g/ha, visual assessment about 3 weeks after treatment vs untreated controls
Outline: as §3

SETVI [16] = assay: Post-emergence action against SETVI; type: in vivo, Setaria viridis; details: post-emergence, dosage 80 g/ha, visual assessment about 3 weeks after treatment vs untreated controls
Outline: as §3

ABUTH [17] = assay: Post-emergence action against ABUTH; type: in vivo, Abutilon theophrasti; details: post-emergence, dosage 80 g/ha, visual assessment about 3 weeks after treatment vs untreated controls
Outline: as §3

AMARE [18] = assay: Post-emergence action against AMARE; type: in vivo, Amaranthus retroflexus; details: post-emergence, dosage 80 g/ha, visual assessment about 3 weeks after treatment vs untreated controls
Outline: as §3

MATIN [19] = assay: Post-emergence action against MATIN; type: in vivo, Matricaria inodora; details: post-emergence, dosage 80 g/ha, visual assessment about 3 weeks after treatment vs untreated controls
Outline: as §3

PHBPU [20] = assay: Post-emergence action against PHBPU; type: in vivo, Pharbitis purpurea; details: post-emergence, dosage 80 g/ha
Outline: as §3

STEME [21] = assay: Post-emergence action against STEME; type: in vivo, Stellaria media; details: post-emergence, dosage 80 g/ha
Outline: as §3

VIOTR [22] = assay: Post-emergence action against VIOTR; type: in vivo, Viola tricolor; details: post-emergence, dosage 80 g/ha
Outline: as §3

VERPE [23] = assay: Post-emergence action against VERPE; type: in vivo, Veronica persica; details: dosage 80 g/ha
Outline: as §3

CYPES [24] = assay: Pre-emergence action against CYPES; type: in vivo, Cyperus esculentus; details: pre-emergence, dosage 320 g/ha, scored visually after 3 weeks vs untreated controls
Outline: as §1

PHBPU [25] = assay: Pre-emergence action against PHBPU; type: in vivo, Pharbitis purpurea; details: Dosage 320 g/ha, pre-emergence
Outline: as §1

POLCO [26] = assay: Post-emergence action against POLCO; type: in vivo, Polygonum convolvulus; details: post-emergence, dosage 80 g/ha
Outline: as §3

CCCn1nnnc1NC(=O)c1ccc(C(F)(F)F)c(C(=O)C2CC2)c1Cl [3-141]
Pre-emergence action against ALOMY (herbicidal activity in percent) (ALOMY [1]): 90%
Pre-emergence action against AVEFA (herbicidal activity) (AVEFA [2]): 80%
Pre-emergence action against ECHCG (herbicidal activity) (ECHCG [3]): 100%
SETVI (Table B8, pre-emergence herbicidal activity) (SETVI [4]): 100%
Pre-emergence action against ABUTH (herbicidal activity) (ABUTH [5]): 100%
Pre-emergence action against AMARE (herbicidal activity) (AMARE [6]): 100%
Pre-emergence action against MATIN (MATIN [7]): 100%
Pre-emergence action against POLCO (POLCO [8]): 90%
Pre-emergence action against STEME (STEME [9]): 100%
Pre-emergence action against VIOTR (VIOTR [10]): 100%
Pre-emergence action against VERPE (VERPE [11]): 100%
Post-emergence action against ALOMY (ALOMY [12]): 80%
Post-emergence action against AVEFA (herbicidal action in percent) (AVEFA [13]): 100%
Post-emergence action against CYPES (herbicidal action in percent) (CYPES [14]): 80%
Post-emergence action against ECHCG (herbicidal action in percent) (ECHCG [15]): 100%
Post-emergence action against SETVI (herbicidal action in percent) (SETVI [16]): 100%
Post-emergence action against ABUTH (herbicidal action in percent) (ABUTH [17]): 80%
Post-emergence action against AMARE (herbicidal action in percent) (AMARE [18]): 100%
Post-emergence action against MATIN (herbicidal action in percent) (MATIN [19]): 100%
Post-emergence action against PHBPU (PHBPU [20]): 100
Post-emergence action against STEME (STEME [21]): 100
Post-emergence action against VIOTR (VIOTR [22]): 100
Post-emergence action against VERPE (VERPE [23]): 100

CCCn1nnnc1NC(=O)c1ccc(S(C)(=O)=O)c(C(=O)C2CC2)c1Cl [3-129]
Pre-emergence action against ALOMY (herbicidal activity in percent) (ALOMY [1]): 90%
Pre-emergence action against AVEFA (herbicidal activity) (AVEFA [2]): 100%
Pre-emergence action against CYPES (herbicidal activity) (CYPES [24]): 90%
Pre-emergence action against ECHCG (herbicidal activity) (ECHCG [3]): 100%
SETVI (Table B8, pre-emergence herbicidal activity) (SETVI [4]): 100%
Pre-emergence action against ABUTH (herbicidal activity) (ABUTH [5]): 100%
Pre-emergence action against AMARE (herbicidal activity) (AMARE [6]): 100%
Pre-emergence action against MATIN (MATIN [7]): 100%
Pre-emergence action against PHBPU (PHBPU [25]): 90%
Pre-emergence action against STEME (STEME [9]): 100%
Pre-emergence action against VIOTR (VIOTR [10]): 100%
Pre-emergence action against VERPE (VERPE [11]): 100%
Post-emergence action against ALOMY (ALOMY [12]): 90%
Post-emergence action against AVEFA (herbicidal action in percent) (AVEFA [13]): 90%
Post-emergence action against CYPES (herbicidal action in percent) (CYPES [14]): 80%
Post-emergence action against ECHCG (herbicidal action in percent) (ECHCG [15]): 100%
Post-emergence action against SETVI (herbicidal action in percent) (SETVI [16]): 100%
Post-emergence action against ABUTH (herbicidal action in percent) (ABUTH [17]): 90%
Post-emergence action against AMARE (herbicidal action in percent) (AMARE [18]): 90%
Post-emergence action against MATIN (herbicidal action in percent) (MATIN [19]): 100%
Post-emergence action against PHBPU (PHBPU [20]): 100
Post-emergence action against STEME (STEME [21]): 100
Post-emergence action against VIOTR (VIOTR [22]): 100
Post-emergence action against VERPE (VERPE [23]): 100

CCn1nnnc1NC(=O)c1ccc(C(F)(F)F)c(C(=O)CCl)c1Cl [2-145]
Pre-emergence action against CYPES (herbicidal activity) (CYPES [24]): 100%
Pre-emergence action against ECHCG (herbicidal activity) (ECHCG [3]): 90%
SETVI (Table B8, pre-emergence herbicidal activity) (SETVI [4]): 100%
Pre-emergence action against ABUTH (herbicidal activity) (ABUTH [5]): 100%
Pre-emergence action against AMARE (herbicidal activity) (AMARE [6]): 100%
Pre-emergence action against MATIN (MATIN [7]): 100%
Pre-emergence action against POLCO (POLCO [8]): 90%
Pre-emergence action against STEME (STEME [9]): 100%
Pre-emergence action against VIOTR (VIOTR [10]): 100%
Pre-emergence action against VERPE (VERPE [11]): 100%
Post-emergence action against ALOMY (ALOMY [12]): 80%
Post-emergence action against ECHCG (herbicidal action in percent) (ECHCG [15]): 100%
Post-emergence action against SETVI (herbicidal action in percent) (SETVI [16]): 100%
Post-emergence action against ABUTH (herbicidal action in percent) (ABUTH [17]): 100%
Post-emergence action against AMARE (herbicidal action in percent) (AMARE [18]): 100%
Post-emergence action against PHBPU (PHBPU [20]): 100
Post-emergence action against POLCO (POLCO [26]): 80
Post-emergence action against STEME (STEME [21]): 100
Post-emergence action against VIOTR (VIOTR [22]): 100

CSc1ccc(C(=O)Nc2nnnn2C)c(Cl)c1C(=O)C1CC1 [1-123]
pest or weed control at 320 g/ha (ALOMY [1]; Alopecurus myosuroides, 504 h, read-out: Pre-emergence action against ALOMY (herbicidal activity in percent)): 90%
pest or weed control at 320 g/ha (AVEFA [2]; Avena fatua, 504 h, read-out: Pre-emergence action against AVEFA (herbicidal activity)): 80%
pest or weed control at 320 g/ha (ECHCG [3]; Echinochloa crus-galli, 504 h, read-out: Pre-emergence action against ECHCG (herbicidal activity)): 100%
pest or weed control at 320 g/ha (SETVI [4]; Setaria viridis, 504 h, read-out: SETVI (Table B8, pre-emergence herbicidal activity)): 100%
pest or weed control at 320 g/ha (ABUTH [5]; Abutilon theophrasti, 504 h, read-out: Pre-emergence action against ABUTH (herbicidal activity)): 90%
pest or weed control at 320 g/ha (AMARE [6]; Amaranthus retroflexus, 504 h, read-out: Pre-emergence action against AMARE (herbicidal activity)): 100%
pest or weed control at 320 g/ha (MATIN [7]; Tripleurospermum inodorum, 504 h): 100%
pest or weed control at 320 g/ha (STEME [9]; Stellaria media, 504 h): 90%
pest or weed control at 320 g/ha (VIOTR [10]; Viola tricolor, 504 h): 100%
pest or weed control at 320 g/ha (VERPE [11]; Veronica persica, 504 h): 100%
pest or weed control at 80 g/ha (ALOMY [12]; Alopecurus myosuroides, 504 h): 80%
pest or weed control at 80 g/ha (AVEFA [13]; Avena fatua, 504 h, read-out: Post-emergence action against AVEFA (herbicidal action in percent)): 100%
pest or weed control at 80 g/ha (ECHCG [15]; Echinochloa crus-galli, 504 h, read-out: Post-emergence action against ECHCG (herbicidal action in percent)): 100%
pest or weed control at 80 g/ha (SETVI [16]; Setaria viridis, 504 h, read-out: Post-emergence action against SETVI (herbicidal action in percent)): 100%
pest or weed control at 80 g/ha (ABUTH [17]; Abutilon theophrasti, 504 h, read-out: Post-emergence action against ABUTH (herbicidal action in percent)): 100%
pest or weed control at 80 g/ha (AMARE [18]; Amaranthus retroflexus, 504 h, read-out: Post-emergence action against AMARE (herbicidal action in percent)): 100%
pest or weed control at 80 g/ha (MATIN [19]; Tripleurospermum inodorum, 504 h, read-out: Post-emergence action against MATIN (herbicidal action in percent)): 100%
pest or weed control at 80 g/ha (PHBPU [20]; Ipomoea purpurea, 504 h): 90%
pest or weed control at 80 g/ha (STEME [21]; Stellaria media, 504 h): 100%
pest or weed control at 80 g/ha (VIOTR [22]; Viola tricolor, 504 h): 100%
pest or weed control at 80 g/ha (VERPE [23]; Veronica persica, 504 h): 100%
